Test results taken from PubChem BioAssay (NCI).
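A five-concentration, 48-hour dose response in 96-well plates underlies each endpoint, interpolated linearly between surrounding concentrations. TGI is the concentration that stops growth completely.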

Legend:
Test in all cases: NCI anticancer screen, dose series, 48 h
SW-620 colon = tested on: SW-620 colon
NCI-H23 lung = tested on: NCI-H23 lung
SK-MEL-2 melanoma = tested on: SK-MEL-2 melanoma
ACHN renal = tested on: ACHN renal
EKVX NSCLC = tested on: EKVX NSCLC
NCI-H522 lung = tested on: NCI-H522 lung
K-562 leukemia = tested on: K-562 leukemia
SK-MEL-28 melanoma = tested on: SK-MEL-28 melanoma
MDA-MB-435 = tested on: MDA-MB-435
SF-539 CNS = tested on: SF-539 CNS
SK-MEL-5 melanoma = tested on: SK-MEL-5 melanoma
IGROV1 ovarian = tested on: IGROV1 ovarian
CCRF-CEM leukemia = tested on: CCRF-CEM leukemia
A549 NSCLC = tested on: A549 NSCLC
SNB-75 CNS = tested on: SNB-75 CNS
HS 578T breast = tested on: HS 578T breast
OVCAR-5 ovarian = tested on: OVCAR-5 ovarian
A498 renal = tested on: A498 renal
M14 melanoma = tested on: M14 melanoma
MDA-MB-231 breast = tested on: MDA-MB-231 breast
HT29 colon = tested on: HT29 colon
HCT-15 colon = tested on: HCT-15 colon
SNB-19 CNS = tested on: SNB-19 CNS
SN12C renal = tested on: SN12C renal
LOX IMVI melanoma = tested on: LOX IMVI melanoma
HOP-62 NSCLC = tested on: HOP-62 NSCLC
OVCAR-3 ovarian = tested on: OVCAR-3 ovarian
PC-3 prostate = tested on: PC-3 prostate
UO-31 renal = tested on: UO-31 renal
SF-268 CNS = tested on: SF-268 CNS
TK-10 renal = tested on: TK-10 renal
SF-295 CNS = tested on: SF-295 CNS
HCT-116 colon = tested on: HCT-116 colon
UACC-62 melanoma = tested on: UACC-62 melanoma
OVCAR-4 ovarian = tested on: OVCAR-4 ovarian
KM12 colon = tested on: KM12 colon
BT-549 breast = tested on: BT-549 breast
HL-60(TB) leukemia = tested on: HL-60(TB) leukemia
NCI-H226 lung = tested on: NCI-H226 lung
MOLT-4 leukemia = tested on: MOLT-4 leukemia
786-0 renal = tested on: 786-0 renal
MDA-N = tested on: MDA-N
COLO 205 colon = tested on: COLO 205 colon
CAKI-1 renal = tested on: CAKI-1 renal
SR leukemia = tested on: SR leukemia
UACC-257 melanoma = tested on: UACC-257 melanoma
DU-145 prostate = tested on: DU-145 prostate
T-47D breast = tested on: T-47D breast
SK-OV-3 ovarian = tested on: SK-OV-3 ovarian
U251 CNS = tested on: U251 CNS
NCI-H460 lung = tested on: NCI-H460 lung
RPMI-8226 leukemia = tested on: RPMI-8226 leukemia
MCF7 breast = tested on: MCF7 breast
OVCAR-8 ovarian = tested on: OVCAR-8 ovarian
NCI/ADR-RES ovarian = tested on: NCI/ADR-RES ovarian

Measured: TGI

Cn1c(=O)c2c(ncn2Cc2ccc(O)c([N+](=O)[O-])c2)n(C)c1=O
> 100 µM: SW-620 colon | NCI-H23 lung | SK-MEL-2 melanoma | ACHN renal | EKVX NSCLC | NCI-H522 lung | K-562 leukemia | SK-MEL-28 melanoma | MDA-MB-435 | SF-539 CNS | SK-MEL-5 melanoma | IGROV1 ovarian | CCRF-CEM leukemia | A549 NSCLC | SNB-75 CNS | HS 578T breast | OVCAR-5 ovarian | A498 renal | M14 melanoma | MDA-MB-231 breast | HT29 colon | HCT-15 colon | SNB-19 CNS | SN12C renal | LOX IMVI melanoma | HOP-62 NSCLC | OVCAR-3 ovarian | PC-3 prostate | UO-31 renal | SF-268 CNS | TK-10 renal | SF-295 CNS | HCT-116 colon | UACC-62 melanoma | OVCAR-4 ovarian | KM12 colon | BT-549 breast | HL-60(TB) leukemia | NCI-H226 lung | MOLT-4 leukemia | 786-0 renal | MDA-N | COLO 205 colon | CAKI-1 renal | SR leukemia | UACC-257 melanoma | DU-145 prostate | T-47D breast | SK-OV-3 ovarian | U251 CNS | NCI-H460 lung | RPMI-8226 leukemia | MCF7 breast | OVCAR-8 ovarian | NCI/ADR-RES ovarian

CC(O)(CCCCCl)c1nc2ccccc2s1 (centres undefined)
> 100 µM: SW-620 colon | NCI-H23 lung | SK-MEL-2 melanoma | ACHN renal | EKVX NSCLC | NCI-H522 lung | K-562 leukemia | SK-MEL-28 melanoma | MDA-MB-435 | SF-539 CNS | SK-MEL-5 melanoma | IGROV1 ovarian | CCRF-CEM leukemia | A549 NSCLC | SNB-75 CNS | HS 578T breast | OVCAR-5 ovarian | A498 renal | M14 melanoma | MDA-MB-231 breast | HT29 colon | HCT-15 colon | SNB-19 CNS | SN12C renal | LOX IMVI melanoma | HOP-62 NSCLC | OVCAR-3 ovarian | PC-3 prostate | UO-31 renal | SF-268 CNS | TK-10 renal | SF-295 CNS | HCT-116 colon | UACC-62 melanoma | OVCAR-4 ovarian | KM12 colon | BT-549 breast | HL-60(TB) leukemia | NCI-H226 lung | MOLT-4 leukemia | 786-0 renal | MDA-N | COLO 205 colon | CAKI-1 renal | SR leukemia | UACC-257 melanoma | DU-145 prostate | T-47D breast | SK-OV-3 ovarian | U251 CNS | RPMI-8226 leukemia | MCF7 breast | OVCAR-8 ovarian | NCI/ADR-RES ovarian
